Measurements published in patent US20190313614A1, “MRAP2 KNOCKOUTS” (EFFSTOCK, LLC, priority 2013, published 2019).

Key:
[1] = target: T1, Mc4r (Mus musculus, UniProt P56450); assay: Mc4r bioassay for Mrap2 effect: cAMP reporter (CRELuc) activity in transfected CHO cells; type: cell-based; conditions: 0-10 nM αMSH, 5 h
T1 construct: expressed in transfected cells; host or cells: CHO cells (ATCC), transient transfection with pRC/CMV constructs, pCRE-Luc and pRL-TK
Excerpt: FIGS. 3A-3C depict the interaction between Mrap2 and Mc4r. […] Top right, Cre DNA analysis by PCR. […] Molecular weight marker (M) on right (bp). Top left, Mrap2 DNA analysis in Sim1^CreBAC::Mrap2^f/f and Mrap2^f/f mice by PCR. Both genotypes contain floxed, intact Mrap2 DNA in CX, HT, and BS (314 bp in upper electropherogram, and 1013 bp in lower electropherogram, molecular weight markers on left). Only Sim1^CreBAC::Mrap2^f/f mice contain Mrap2^Del (400 bp, lower electropherogram), and only in HT and BS, but not in CX, consistent with fluorescent reporter data. No PCR products are present without added DNA (H2O). Bottom, Mrap2 mRNA expression in Sim1^CreBAC::Mrap2^f/f and Mrap2^f/f mice by RT-PCR. Both genotypes express floxed, intact Mrap2 mRNA in CX, HT, and BS (247 bp). Only Sim1^CreBAC::Mrap2^f/f mice express Mrap2^Del mRNA (147 bp), and only in HT. Global Mrap2^Del/Del mice express Mrap2^Del mRNA in all 3 sites. FIG. 3B depicts graphs of body weights of Mrap2^+/+ (male n=6, female n=11), Mrap2^−/− (male n=11, female n=7), Mrap2^f/f (male n=8, female n=12) and conditional Sim1^CreBAC::Mrap2^f/f (male n=8, female n=7) mice, all age 133 days. *p=0.04, **p=0.007, ***p=0.0002, ****p<0.0001. FIG. 3C depicts graphs of the effect of Mrap2 on Mc4r signaling. Left panel: Level of cAMP reporter activity (CRELuc) in CHO cells alone, or co-transfected with Mc4r, with or without Mrap2 or the Mrap2 knockout construct, Mrap2delE3, 5 h following exposure to 0-10 nM αMSH (n=3/group). Right panel: cAMP activity of these same constructs, expressed as percent induction following 0-10 nM αMSH, relative to 0 nM αMSH. *p<0.0001, Mc4r+Mrap2 vs. Mc4r at same [αMSH], by ANOVA. For most data points, error bars are obscured by symbols.
The coding sequences of mouse Mrap2 and Mc4r were isolated by PCR of brain cDNA (Mrap2) or genomic DNA (Mc4r) (Table S4), subcloned into TOPO-pCRII™ (Invitrogen, Carlsbad, Calif.), sequence-verified, and ligated into pRC/CMV (Invitrogen, Carlsbad, Calif.). Mrap2delE3, identical to the product of Mrap2^−/− mice, was also created and ligated into pRC/CMV. […]

[2] = target: T2, Mc3r (Mus musculus, UniProt P33033); assay: Effect of Mrap2 on Mc3r signaling: cAMP reporter (CRELuc) activity in transfected CHO cells; type: cell-based; conditions: Mc3r+Mrap2 vs. Mc3r, at the two highest αMSH doses (0-10 nM, 5 h)
T2 construct: expressed in transfected cells; host or cells: CHO cells
Excerpt: FIG. 6A depicts graphs of food intake (left panel) and body weight (right panel) in female Mrap2^flox/flox vs. Sim1^Cre: Mrap2^flox/flox mice. Sim1^Cre::Mrap2^flox/flox mice were either ad libitum-fed or pair-fed starting at age 70 days (upward arrow) to ad libitum-fed Mrap2^flox/flox mice. […] FIG. 6B depicts graphs of body weights in mice with combined knockout of Mrap2 and Mc4r. Top panels: Body weights in mixed Mrap^+/−::Mc4r^+/− genotypes (male Mrap^+/−::Mc4r^+/−, n=10; Mrap^+/+::Mc4r^+/−, n=10; Mrap^+/−::Mc4r^+/+, n=8; Mrap^+/+::Mc4r^+/+, n=9; female Mrap^+/−: Mc4r^−/−, n=9; Mrap^+/+::Mc4r^−/−, n=12; Mrap^+/−::Mc4r^+/+, n=8; Mrap^+/+::Mc4r^+/+, n=8). Bottom panels: Body weights in mixed Mrap^−/−::Mc4r^−/− genotypes (male Mrap^−/−:Mc4r^−/−, n=9; Mrap^+/+::Mc4r^−/−, n=8; Mrap^−/−: Mc4r^+/+, n=8; Mrap^+/+::Mc4r^+/+, n=9; female Mrap^−/−::Mc4r^−/−, n=7; Mrap^+/+:::Mc4r^−/−, n=8; Mrap^−/−::Mc4r^+/+, n=9; Mrap^+/+:::Mc4r^+/+, n=8). *p<0.05, **p<0.001 by ANOVA. FIG. 6C depicts the results of co-immunoprecipitation assay between Mrap2 and Mc4r. Transfection into CHO cells of Myc-tagged Mrap2 and GFP-tagged Mc4r was followed by anti-Myc immunoprecipitation and anti-GFP immunoblotting. […] Right panel: cAMP activity of these same constructs, expressed as percent induction following 0-10 nM αMSH, relative to 0 nM αMSH. *p<0.0001, Mc3r+Mrap2 vs. Mc3r at same [αMSH], by ANOVA. […]

[3] = tested on: melanocortin receptor (Mc4r and Mc3r); assay: Food intake following saline or MTII in Mrap2+/+ vs. Mrap2−/− mice; type: in vivo; conditions: young (age 38-45 days) Mrap2−/− mice; 2 μg/g body weight, i.p.
Excerpt: FIG. 5A depicts images of the appearance of male and female Mrap^+/+ and Mrap2^−/− mice. Left panel: External appearance on standard chow (age 175 days). Upper right: mesenteric fat in female Mrap^+/+ and Mrap2^−/− mice (age 175 days). Lower right: Brown adipose tissue (BAT) in female Mrap^+/+ and Mrap2^−/− mice (age 175 days). FIG. 5B depicts the level of serum leptin in Mrap2^+/+ and Mrap2^−/− mice. Left panel: Mrap2^+/+ vs. Mrap2^−/− ad libitum fed male (n=4 vs. 6) and female (n=8 vs. 4) mice (ages 302-349 days). Right panel: Mrap2^+/+ vs. Mrap2^−/− food-restricted, weight-matched male (n=4 vs. 6, weight=27.4±0.6 vs. 24.8±0.2 g), and female (n=4 vs. 6, weight=21.5±0.6 vs. 20.8±0.2 g) mice (ages 135-151 days). *p=0.005, **p<0.00001. FIG. 5C depicts the level of fasting serum insulin in Mrap2^+/+ and Mrap2^−/− male (n=4 vs. 6) and female (n=6 vs. 8) mice (ages 88-194 days). There was no significant difference between genotypes of either gender. FIG. 5D depicts the results of a glucose tolerance test (intraperitoneal) in Mrap2^+/+ and Mrap2^−/− male (n=4 vs. 6) and female (n=6 vs. 8) mice (ages 88-194 days). There was no significant difference between genotypes of either gender. FIG. 5E depicts levels of blood corticosterone in morning, evening, and following 30 minutes of restraint stress in Mrap2^+/+ and Mrap2^−/− male (n=4 vs. 3) and female (n=6 vs. 7) mice (ages 124-178 days). […]

T1 sequence (P56450 whole entry): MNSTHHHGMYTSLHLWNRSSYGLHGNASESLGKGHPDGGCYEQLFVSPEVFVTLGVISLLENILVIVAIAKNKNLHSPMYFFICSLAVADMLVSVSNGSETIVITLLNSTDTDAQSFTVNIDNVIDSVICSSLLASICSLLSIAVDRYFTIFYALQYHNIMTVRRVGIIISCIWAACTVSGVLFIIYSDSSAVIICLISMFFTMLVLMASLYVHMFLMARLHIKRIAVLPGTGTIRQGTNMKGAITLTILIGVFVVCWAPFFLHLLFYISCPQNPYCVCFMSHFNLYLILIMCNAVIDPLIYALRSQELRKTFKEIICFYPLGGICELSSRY
T2 sequence (P33033 whole entry): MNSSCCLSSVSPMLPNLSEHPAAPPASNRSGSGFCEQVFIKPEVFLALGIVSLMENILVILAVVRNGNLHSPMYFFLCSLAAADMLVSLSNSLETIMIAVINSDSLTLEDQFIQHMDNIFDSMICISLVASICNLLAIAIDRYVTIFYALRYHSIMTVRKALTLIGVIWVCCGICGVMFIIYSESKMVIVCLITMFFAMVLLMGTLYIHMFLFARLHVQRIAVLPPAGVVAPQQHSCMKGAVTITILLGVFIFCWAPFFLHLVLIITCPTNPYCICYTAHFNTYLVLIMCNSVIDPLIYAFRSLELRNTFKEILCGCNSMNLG

| Substance | increase above basal PKA activity ([1]; CHO cells co-transfected with Mc4r and Mrap2, relative to 0 nM αMSH) [fold] | increase above basal PKA activity ([1]; CHO cells with Mc4r alone) [fold] | increase above basal PKA activity ([1]; CHO cells with Mc4r plus the Mrap2 null construct Mrap2delE3) [fold] | signaling through Mc3r (cAMP reporter activity) [2] | anorectic response (food intake) [3] |
| --- | --- | --- | --- | --- | --- |
| α-melanocyte stimulating hormone [αMSH] | 5 | < 2 | < 2 | increased signaling | – |
| acetyl-(Nle^4, Asp^5, D-Phe^7, Lys^10)-cyclo-[…]-MSH (4-10) amide acetate salt [MTII] | – | – | – | – | intact anorectic response |
